Consider 18 compounds from PubChem BioAssay AID248 (DTP/NCI, 2004).

Several values for one entry are separate records, joined by “and”; a condition that tells them apart may be missing. Identical values can stand only once. Toxic doses and inconclusive results are not listed.

The test system of this assay is L1210 leukemia ip in BDF1 mice, survival T/C. Nature of the assay: NCI In Vivo Anticancer Drug Screen. Data for tumor model L1210 Leukemia (intraperitoneal) in B6D2F1 (BDF1) mice. Particulars: endpoint: mean survival time, higher = longer survival. In short, it runs like this:
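Read-out is survival time, reported as the treated-group measurement over the vehicle-control measurement.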

Setting [1] is: dose: 100.0 mg/kg/injection, schedule: Q01DX001 (ip), vehicle: saline with Tween-80.
[2] abbreviates: dose: 200.0 mg/kg/injection, schedule: Q01DX001 (ip), vehicle: saline with Tween-80.
Setting [3] is: dose: 100.0 mg/kg/injection, schedule: Q01DX001 (ip), vehicle: Klucel (hydroxypropylcellulose) (HPC).
Where [4] appears, read: dose: 200.0 mg/kg/injection, schedule: Q01DX001 (ip), vehicle: Klucel (hydroxypropylcellulose) (HPC).
The mark [5] stands for this setting: dose: 400.0 mg/kg/injection, schedule: Q01DX001 (ip), vehicle: Klucel (hydroxypropylcellulose) (HPC).
Setting [6] is: dose: 75.0 mg/kg/injection, schedule: Q01DX001 (ip), vehicle: saline.
The mark [7] stands for this setting: dose: 100.0 mg/kg/injection, schedule: Q01DX001 (ip), vehicle: saline.
Setting [8] is: dose: 200.0 mg/kg/injection, schedule: Q01DX001 (ip), vehicle: saline.
Where [9] appears, read: dose: 400.0 mg/kg/injection, schedule: Q01DX001 (ip), vehicle: saline.
The mark [10] stands for this setting: dose: 100.0 mg/kg/injection, schedule: Q04DX003 (ip), vehicle: saline.
Where [11] appears, read: dose: 200.0 mg/kg/injection, schedule: Q04DX003 (ip), vehicle: saline.
[12] abbreviates: dose: 400.0 mg/kg/injection, schedule: Q04DX003 (ip), vehicle: saline.
Setting [13] is: dose: 50.0 mg/kg/injection, schedule: Q01DX001 (ip), vehicle: saline.

Regarding `CC(=O)Nc1ccn(C2OC(CO)C(O)C2O)c(=O)n1` (stereo not given), the T/C reads like this: (dose: 200.0 mg/kg/injection, schedule: Q01DX009 (ip), vehicle: saline) 166 % of control; (dose: 400.0 mg/kg/injection, schedule: Q01DX009 (ip), vehicle: saline) 163 % of control.

With `c1ccc2c(CC3=NCCN3)cccc2c1`, the T/C (dose: 12.5 mg/kg/injection, schedule: Q01DX009 (ip), vehicle: saline with Tween-80) is 96 % of control and the T/C (dose: 25.0 mg/kg/injection, schedule: Q01DX009 (ip), vehicle: saline with Tween-80) was 103 % of control.

Consider `NNc1nncc(=O)[nH]1`, for which the T/C is, setting by setting: under setting [1], 103 % of control; under setting [2], 103 % of control.

Regarding `O=C(CCCl)OCC#CCOC(=O)CCCl`, the T/C by setting is: (dose: 100.0 mg/kg/injection, schedule: Q01DX009 (ip), vehicle: saline with Tween-80) 101 % of control; (dose: 200.0 mg/kg/injection, schedule: Q01DX009 (ip), vehicle: saline with Tween-80) 94 % of control.

As to `OC1CCC2CC12` (stereo not given), the T/C by setting is: (dose: 50.0 mg/kg/injection, schedule: Q01DX001 (ip), vehicle: saline with Tween-80) 98 % of control; under setting [1], 102 % of control and 106 % of control; under setting [2], 107 % of control and 95 % of control; (dose: 400.0 mg/kg/injection, schedule: Q01DX001 (ip), vehicle: saline with Tween-80) 93 % of control.

On to `Cc1ccc(N2C(=O)CNC2=O)cc1`, for which the T/C reads like this: under setting [3], 101 % of control; under setting [4], 101 % of control; under setting [5], 96 % of control.

As to `O=[N+]([O-])c1ccc(O)c(C2N(Cc3ccc(N(CCCl)CCCl)cc3)CCCN2Cc2ccc(N(CCCl)CCCl)cc2)c1`, the T/C runs as follows: (dose: 50.0 mg/kg/injection, schedule: Q01DX001 (ip), vehicle: carboxymethylcellulose (CMC)) 109 % of control; under setting [3], 93 % of control; (dose: 100.0 mg/kg/injection, schedule: Q01DX001 (ip), vehicle: carboxymethylcellulose (CMC)) 109 % of control; (dose: 100.0 mg/kg/injection, schedule: Q01DX009 (ip), vehicle: Klucel (hydroxypropylcellulose) (HPC)) 93 % of control; (dose: 100.0 mg/kg/injection, schedule: Q04DX003 (ip), vehicle: Klucel (hydroxypropylcellulose) (HPC)) 103 % of control; under setting [4], 95 % of control. In addition, the T/C runs as follows: (dose: 200.0 mg/kg/injection, schedule: Q01DX001 (ip), vehicle: carboxymethylcellulose (CMC)) 118 % of control; (dose: 200.0 mg/kg/injection, schedule: Q01DX009 (ip), vehicle: Klucel (hydroxypropylcellulose) (HPC)) 98 % of control; (dose: 200.0 mg/kg/injection, schedule: Q04DX003 (ip), vehicle: Klucel (hydroxypropylcellulose) (HPC)) 97 % of control; under setting [5], 95 % of control; (dose: 400.0 mg/kg/injection, schedule: Q01DX009 (ip), vehicle: Klucel (hydroxypropylcellulose) (HPC)) 94 % of control; (dose: 400.0 mg/kg/injection, schedule: Q04DX003 (ip), vehicle: Klucel (hydroxypropylcellulose) (HPC)) 95 % of control.

Turning to `OC1CC2CCC(C1)N2` (stereo not given), the T/C under setting [6] was 95 % of control and the T/C (dose: 150.0 mg/kg/injection, schedule: Q01DX001 (ip), vehicle: saline) is 91 % of control.

`CC(=O)NC1C(O)CC(O)(C(=O)O)OC1C(O)C(O)CO` (stereo not given): the T/C is, setting by setting: under setting [7], 98 % of control; under setting [8], 100 % of control; under setting [9], 94 % of control.

In the case of `O=C(C1=Cc2ccccc2OC1)N1CCN(C(=O)C2=Cc3ccccc3OC2)CC1`, the T/C reads like this: (dose: 100.0 mg/kg/injection, schedule: Q04DX003 (ip), vehicle: saline with Tween-80) 100 % of control; (dose: 200.0 mg/kg/injection, schedule: Q04DX003 (ip), vehicle: saline with Tween-80) 97 % of control; (dose: 400.0 mg/kg/injection, schedule: Q04DX003 (ip), vehicle: saline with Tween-80) 95 % of control.

On to `O=C(O)C(O)(Cc1ccccc1)C(=O)C(O)C(O)CO` (stereo not given), for which the T/C by setting is: (dose: 50.0 mg/kg/injection, schedule: Q04DX002 (ip), vehicle: saline) 87 % of control; (dose: 100.0 mg/kg/injection, schedule: Q04DX002 (ip), vehicle: saline) 106 % of control; (dose: 200.0 mg/kg/injection, schedule: Q04DX002 (ip), vehicle: saline) 91 % of control.

In the case of `CCCCCCCCCC(=O)NN=C(C)C`, the T/C is 92 % of control (dose: 12.5 mg/kg/injection, schedule: Q01DX009 (ip), vehicle: Klucel (hydroxypropylcellulose) (HPC)); 105 % of control (dose: 25.0 mg/kg/injection, schedule: Q01DX009 (ip), vehicle: Klucel (hydroxypropylcellulose) (HPC)); 116 % of control (dose: 50.0 mg/kg/injection, schedule: Q01DX009 (ip), vehicle: Klucel (hydroxypropylcellulose) (HPC)).

`Cc1cccc(C(=O)NC(=S)Nc2ccccc2)c1`: the T/C by setting is: (dose: 5.0 mg/kg/injection, schedule: Q01DX001 (ip), vehicle: saline) 97 % of control; (dose: 10.0 mg/kg/injection, schedule: Q01DX001 (ip), vehicle: saline) 103 % of control; (dose: 20.0 mg/kg/injection, schedule: Q01DX001 (ip), vehicle: saline) 97 % of control.

As to `CCOC(=O)/C(O)=C\c1cc(Br)c(OC)cc1[N+](=O)[O-]`, the T/C is 102 % of control under setting [7]; 98 % of control under setting [10]; 107 % of control under setting [8]; 98 % of control under setting [11]; 95 % of control under setting [9]; 95 % of control under setting [12].

With `S=c1n(CN2CCCCC2)c2cncnc2n1CN1CCCCC1`, the T/C was 98 % of control (dose: 75.0 mg/kg/injection, schedule: Q01DX Z (ip), vehicle: carboxymethylcellulose (CMC)); 109 % of control (dose: 100.0 mg/kg/injection, schedule: Q01DX Z (ip), vehicle: carboxymethylcellulose (CMC)); 95 % of control (dose: 125.0 mg/kg/injection, schedule: Q01DX Z (ip), vehicle: carboxymethylcellulose (CMC)).

In the case of `CCC(=O)OCC1OC(n2cc(F)c(=O)[nH]c2=O)CC1OC(=O)CC` (stereo not given), the T/C is 101 % of control under setting [13]; 117 % of control (dose: 89.0 mg/kg/injection, schedule: Q01DX015 (ip), vehicle: saline); 101 % of control under setting [7]; 104 % of control under setting [10]; 101 % of control under setting [8]; 114 % of control under setting [11]. Besides, the T/C is, setting by setting: (dose: 264.0 mg/kg/injection, schedule: Q04DX003 (ip), vehicle: saline) 111 % of control and 112 % of control; (dose: 300.0 mg/kg/injection, schedule: Q01DX015 (ip), vehicle: saline) 115 % of control; under setting [9], 113 % of control; under setting [12], 108 % of control.

Turning to `CC1CN=C(c2ccc(NC(=O)c3cccc(C(=O)Nc4ccc(C5=NCC(C)N5)cc4)c3)cc2)N1` (stereo not given), the T/C was 98 % of control (dose: 4.5 mg/kg/injection, schedule: Q01DX Z (ip), vehicle: carboxymethylcellulose (CMC)); 95 % of control (dose: 6.8 mg/kg/injection, schedule: Q01DX Z (ip), vehicle: carboxymethylcellulose (CMC)); 124 % of control (dose: 10.2 mg/kg/injection, schedule: Q01DX Z (ip), vehicle: carboxymethylcellulose (CMC)); 101 % of control (dose: 16.4 mg/kg/injection, schedule: Q01DX Z (ip), vehicle: carboxymethylcellulose (CMC)); 155 % of control (dose: 37.0 mg/kg/injection, schedule: Q01DX Z (ip), vehicle: carboxymethylcellulose (CMC)); 151 % of control (dose: 40.0 mg/kg/injection, schedule: Q01DX Z (ip), vehicle: carboxymethylcellulose (CMC)). Besides, the T/C (dose: 50.0 mg/kg/injection, schedule: Q## X010 (oral), vehicle: saline) was 97 % of control; the T/C (dose: 55.5 mg/kg/injection, schedule: Q01DX Z (ip), vehicle: carboxymethylcellulose (CMC)) is 113 % of control and 87 % of control; the T/C (dose: 100.0 mg/kg/injection, schedule: Q## X010 (oral), vehicle: saline) is 103 % of control; the T/C (dose: 200.0 mg/kg/injection, schedule: Q## X010 (oral), vehicle: saline) was 96 % of control.

Regarding `O=C1Cc2ccccc2C(=O)N1Nc1ccccc1`, the T/C reads like this: (dose: 22.0 mg/kg/injection, schedule: Q01DX001 (ip), vehicle: saline) 96 % of control; (dose: 33.0 mg/kg/injection, schedule: Q01DX001 (ip), vehicle: saline) 91 % of control; under setting [13], 93 % of control and 101 % of control; under setting [6], 95 % of control; under setting [7], 101 % of control; under setting [8], 95 % of control. Under setting [9], the T/C is 95 % of control.
